Assay results taken from patent US7153495B2, “Fragrance friendly and cost effective antiperspirant actives and method of making the same” (Reheis, Inc., priority 2004, dated 2006).

How the values were obtained:
human volunteers = assay: Controlled Hot Room Gravimetric Test of antiperspirant efficacy, suspension roll-on; type: in vivo; conditions: for Sweat reduction: anhydrous suspension roll-on, about 20% salt on anhydrous basis, hot room
Experimental: Aluminum zirconium octa salt of example 1 was tested for antiperspirant efficacy against most widely used aluminum zirconium tetrachlorohydrex in a suspension roll-on formulation using the standard hot room procedure. In the standard hot room procedure, human volunteers are subjected to thermal stress and gravimetric determination of the perspiration produced under the thermal stress with and without antiperspirant product applications are made. The data is subjected to analysis of covariance method described by Murphy and Levine (T. D. Murphy, et al., Analysis of Antiperspirant Efficacy Test Results, Journal of the Society of Cosmetic Chemists, Vol. 42, May 1991, pp. 167–197) and compared for percent sweat reduction capacity. Antiperspirancy tests were conducted by an outside independent lab employing “Controlled Hot Room Gravimetric Test” in conformance with FDA guidelines.
The anhydrous suspension roll-ons were prepared using an aluminum zirconium salt concentration of about 20% on an anhydrous basis (about 25% on weight basis) and approximate concentration of other ingredients were Dow Coming 245, 70.5%, Bentone 38, 2.70%, SDA Alcohol 40 (95% alcohol+5% water) 1.8%.
Aluminum zirconium tetrachlorohydrex powder used for comparison had the following chemical analysis. % Al 14.8, % Zr 14.5, % Cl 18.36, % Glycine 11.7, Al/Zr atomic ratio 3.52 and M/Cl atomic ratio of 1.36, % A.S. 77.46.
Sweat reduction values for the octa and tetra salts were 48% and 52% respectively. Results of this study established that amino acid free cost effective aluminum zirconium salts could be prepared without sacrificing efficacy.

[1] = Fragrance compatibility study (colour formation with fragrances, Macbeth Color Spectrophotometer and visual); type: physicochemical; conditions: for ΔRG @ 45° C., Average / ΔYB @ 45° C., Average: average of 14 fragrances; for ΔRG @ 45° C., Average / ΔYB @ 45° C., Average / ΔRG @ 45° C. / ΔYB @ 45° C.: four weeks at 45° C.; for ΔRG @ 45° C. / ΔYB @ 45° C.: 0.75% perfume, 20% active
Experimental: It is known that fragrances in antiperspirants can discolor over time due to the acidic nature and high transition metals concentration especially Fe, Cr, Co, Mn, Cu, and Ni. It is also known that glycine can initiate Schiff base reaction with aldehydes present in fragrances. […] Fragrance dispersions were prepared as follows: 0.75% perfume, 1.0% Arlasolve 200, 20% antiperspirant active (on an anhydrous basis), q.s. DI water. Samples were stored at 45° C. for four weeks and were analyzed for color visually as well as using Macbeth Color Spectrophotometer. Aluminum zirconium tetrachlorohydrex was compared against aluminum zirconium penta and octa salts of Examples 1 and 2. Color was measured as ΔYB (yellow blue) and ΔRG (red green) for all the fourteen fragrances and three actives.

Substance | Sweat reduction (human volunteers; 37 female subjects) | ΔRG @ 45° C., Average [1] | ΔYB @ 45° C., Average [1] | ΔRG @ 45° C. ([1]; fragrance AC 10278/498988) | ΔYB @ 45° C. ([1]; fragrance AC 10278/498988) | ΔRG @ 45° C. ([1]; fragrance Bell J-8381) | ΔYB @ 45° C. ([1]; fragrance Bell J-8381) | ΔRG @ 45° C. ([1]; fragrance Drom99-920) | ΔYB @ 45° C. ([1]; fragrance Drom99-920) | ΔRG @ 45° C. ([1]; fragrance FFS 52847) | ΔYB @ 45° C. ([1]; fragrance FFS 52847) | ΔRG @ 45° C. ([1]; fragrance Firm. 430–507) | ΔYB @ 45° C. ([1]; fragrance Firm. 430–507) | ΔRG @ 45° C. ([1]; fragrance Noville AN 119738) | ΔYB @ 45° C. ([1]; fragrance Noville AN 119738) | ΔRG @ 45° C. ([1]; fragrance Q-26238) | ΔYB @ 45° C. ([1]; fragrance Q-26238) | ΔRG @ 45° C. ([1]; fragrance Q-26239) | ΔYB @ 45° C. ([1]; fragrance Q-26239) | ΔRG @ 45° C. ([1]; fragrance Q-26240) | other results
aluminum zirconium octachloro-hydrate [Example 1] | 48% | 6.84 | 8.2 | 1.86 | 3.77 | 2.88 | 5.56 | 2.28 | 4.45 | 6.37 | 6.76 | 12.82 | 14.63 | 11.91 | 12.23 | 7.45 | 8.49 | 6.65 | 9.40 | 4.07 | adverse experiences (human volunteers; 37 female subjects, suspension roll-on): No adverse experiences; difference in the reduction in perspiration versus aluminum zirconium tetrachlorohydrex (human volunteers; 37 female subjects, p=0.127): no statistically significant difference; discoloration compared with tetrasalt ([1]; 14 fragrances, four weeks of shelf aging at 45° C., visual and instrumental): less discoloration; ΔYB @ 45° C. ([1]; fragrance Q-26240): 5.04; ΔRG @ 45° C. ([1]; fragrance Q-26241): 3.76; ΔYB @ 45° C. ([1]; fragrance Q-26241): 7.13; ΔRG @ 45° C. ([1]; fragrance Q-26242): 6.54; ΔYB @ 45° C. ([1]; fragrance Q-26242): 9.77; ΔRG @ 45° C. ([1]; fragrance Quest Q-14072): 10.05; ΔYB @ 45° C. ([1]; fragrance Quest Q-14072): 9.61; ΔRG @ 45° C. ([1]; fragrance SM 25105D): 8.65; ΔYB @ 45° C. ([1]; fragrance SM 25105D): 8.57; ΔRG @ 45° C. ([1]; fragrance Takasago RM 1595): 10.51; ΔYB @ 45° C. ([1]; fragrance Takasago RM 1595): 10.02
aluminum zirconium tetrachlorohydrex [reference compound] | 52% | 9.48 | 11.94 | 4.67 | 7.12 | 4.69 | 7.45 | 5.55 | 9.69 | 6.48 | 8.63 | 18.73 | 20.27 | 16.50 | 16.28 | 8.67 | 11.51 | 8.24 | 12.12 | 8.68 | adverse experiences (human volunteers; in vivo): No adverse experiences; ΔYB @ 45° C. ([1]; fragrance Q-26240): 10.51; ΔRG @ 45° C. ([1]; fragrance Q-26241): 7.98; ΔYB @ 45° C. ([1]; fragrance Q-26241): 11.29; ΔRG @ 45° C. ([1]; fragrance Q-26242): 9.21; ΔYB @ 45° C. ([1]; fragrance Q-26242): 14.50; ΔRG @ 45° C. ([1]; fragrance Quest Q-14072): 14.66; ΔYB @ 45° C. ([1]; fragrance Quest Q-14072): 16.59; ΔRG @ 45° C. ([1]; fragrance SM 25105D): 9.49; ΔYB @ 45° C. ([1]; fragrance SM 25105D): 11.76; ΔRG @ 45° C. ([1]; fragrance Takasago RM 1595): 9.14; ΔYB @ 45° C. ([1]; fragrance Takasago RM 1595): 9.49
